This note sets out measurements from patent US9518015B2, “EP1 receptor ligands” (LABORATORIOS DEL DR. ESTEVE, S.A., priority 2011, dated 2016).

Test [1] concerns the target T1, human EP1 receptor (Homo sapiens, UniProt P34995).
T1 sequence (P34995 1-402): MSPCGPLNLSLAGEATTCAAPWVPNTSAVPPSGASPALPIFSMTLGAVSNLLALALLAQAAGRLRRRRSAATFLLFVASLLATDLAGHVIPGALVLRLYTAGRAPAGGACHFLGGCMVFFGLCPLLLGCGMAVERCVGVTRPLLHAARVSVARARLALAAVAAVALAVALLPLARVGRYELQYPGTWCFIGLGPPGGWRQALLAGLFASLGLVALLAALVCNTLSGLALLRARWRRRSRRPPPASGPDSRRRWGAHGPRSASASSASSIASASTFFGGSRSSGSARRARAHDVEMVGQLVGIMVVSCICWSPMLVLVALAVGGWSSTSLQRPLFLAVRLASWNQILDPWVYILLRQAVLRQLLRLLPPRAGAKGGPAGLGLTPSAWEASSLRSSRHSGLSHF
Briefly: Test 2: Measurement of IP1 responses by HTRF, suspended HEK-293 cells stably expressing human EP1 receptors, PGE2 30 nM. The test is classed as cell-based. Details: expressed in transfected cells. Particulars: for inhibition at 10 µM: HEK293, at 10 μM, read-out: Results of Test 2 (Functional assay), % inh. On the procedure: Test 2: Measurement of IP1 responses by Homogeneous Time Resolved Fluorescence
IP1 measurements on HEK-293 cells that stably expressed human EP1 receptors were performed by using a system based on Homogeneous Time Resolved Fluorescense (HTRF) (Gabriel et al., 2003). This technology allows the direct measurement of IP1 in living cells. The principle of this assay is based on competition between IP1 produced by cells and IP1-d2 conjugate for the binding with monoclonal anti-IP1-cryptate conjugate. The HTRF IP1 kit from CisBio was used according to the manufacturer's directions. The experimental procedure was performed as stated below.
Suspended cells (30,000 cells per well) were added to 96-well culture plates in 40 μl of stimulation buffer (supplied by the kit). Compounds were then added in 20 μl of stimulation buffer and incubated at 37° C. for 15 minutes followed by 10 μl of PGE2 to a final concentration of […]. After 90 minutes at 37° C., the reaction was stopped lysing the cells with a mixture of 15 μl of cryptate and 15 μl of IP1-d2 prepared in the lysis buffer supplied by the manufacturer. Plates were incubated for an additional hour at room temperature and read at 665 nm/620 nm using an UltraEvolution Plate reader (Tecan).
Antagonist percentage inhibition was calculated relating compounds activity to the 0% inhibition of the wells incubated with 10 nM PGE2 alone and 100% inhibition of the wells incubated with 10 nM PGE2 plus 1 μM of the reference antagonist.
Background: In TR-FRET formats the signal depends on donor and acceptor labels being close together.

The target of test [2] is T1, human EP1 receptor. Briefly: Test 1: Human EP1 receptor radioligand binding assay ([3H]-PGE2, transfected HEK-293 cell membranes). On the set-up: expressed in transfected cells; host or cells: HEK-293 cell membranes. Particulars: read-out: Results of Test 1 (Binding assay), % inh. On the procedure: Test 1: Human EP1 Receptor Radioligand Binding Assay
To investigate binding properties of EP1 receptor ligands to human EP1 receptor, transfected HEK-293 cell membranes and [3H]-PGE2 (Perkin Elmer) were used. In 96-well plates the assay was carried out with a total reaction volume of 250 μl, containing 25 μl of membrane suspension (30 μg protein/well), 25 μl of [3H]-PGE2 (10 nM) in either absence or presence of 25 μl of either buffer or PGE2 (10 μM) for total and non-specific binding, respectively. Binding buffer contained 10 mM MES, 1 mM MgCl2 and 1 mM EDTA at pH 6.0. Plates were incubated at 25° C. for 60 minutes. After the incubation period, 200 μl of incubate were transferred to MultiScreen HTS, FB plates (Millipore), filtered and plates were washed 6 times with ice-cold 10 mM MES, 1 mM MgCl2 and 1 mM EDTA at pH 6.0. Filters were dried and counted in a MicroBeta scintillation counter (Perkin-Elmer) using EcoScint liquid scintillation cocktail.
Percentage inhibition was calculated relating compounds activity to the 0% inhibition of the wells incubated with 10 nM [3H]-PGE2 alone (total binding) and 100% inhibition of the wells incubated with 10 nM [3H]-PGE2 plus 10 μM PGE2 (non-specific binding).

For `O=C(O)c1cccc2c1ccn2Cc1cc(Cl)ccc1OCc1ccc(C(F)(F)F)cc1` [Example 11, 1-(5-chloro-2-((4-(trifluoromethyl)benzyl)oxy)benzyl)-1H-indole-4-carboxylic acid], the inhibition at 10 µM in test [1] and in test [2] was over 75% in each case.

For `O=C(O)c1cccc2c1ccn2Cc1cc(Cl)ccc1OCc1ccc(F)cc1Cl` [Example 12, 1-(5-chloro-2-((2-chloro-4-fluorobenzyl)oxy)benzyl)-1H-indole-4-carboxylic acid], the inhibition at 10 µM in test [1] and in test [2] was over 75% in each case.

For `O=C(O)c1cccc2c1ccn2Cc1cc(Cl)ccc1OCc1c(F)c(F)cc(F)c1F` [Example 13, 1-(5-chloro-2-((2,3,5,6-tetrafluorobenzyl)oxy)benzyl)-1H-indole-4-carboxylic acid], the inhibition at 10 µM in test [1] was over 75%; in test [2], 45 to 75%.

As for `O=C(O)c1cccc2c1ccn2Cc1cc(Cl)ccc1OCc1ccc(C(F)(F)F)cc1C(F)(F)F` [Example 14], the inhibition at 10 µM in test [1] and in test [2] was over 75% each time.

Regarding `O=C(O)c1cccc2c1ccn2Cc1cc(Cl)ccc1OCc1ccc(F)c(Br)c1` [Example 17, 1-(2-((3-bromo-4-fluorobenzyl)oxy)-5-chlorobenzyl)-1H-indole-4-carboxylic acid], the figures for the inhibition at 10 µM in test [1] and in test [2] were over 75% and 45 to 75%, respectively.

For the compound `O=C(O)c1cccc2c1ccn2Cc1cc(F)ccc1OCc1ccc(F)cc1Cl` [Example 19, 1-(2-((2-chloro-4-fluorobenzyl)oxy)-5-fluorobenzyl)-1H-indole-4-carboxylic acid], the values for the inhibition at 10 µM in test [1] and in test [2] were over 75% and 45 to 75%, respectively.

Take `O=C(O)c1cccc2c1ccn2Cc1cc(Cl)ccc1OCc1ccc(F)c(F)c1F` [Example 21, 1-(5-chloro-2-((2,3,4-trifluorobenzyl)oxy)benzyl)-1H-indole-4-carboxylic acid]: the figures for the inhibition at 10 µM in test [1] and in test [2] were over 75% and 45 to 75%, respectively.

Regarding `O=C(O)c1cccc2c1ccn2Cc1cc(F)ccc1OCc1ccc(F)c(Br)c1` [Example 24, 1-(2-((3-bromo-4-fluorobenzyl)oxy)-5-fluorobenzyl)-1H-indole-4-carboxylic acid], the inhibition at 10 µM in test [1] is over 75%; in test [2], 45 to 75%.

In the case of `O=C(O)c1cccc2c1ccn2Cc1cc(Br)ccc1OCc1ccc(F)c(Br)c1` [Example 25, 1-(5-bromo-2-((3-bromo-4-fluorobenzyl)oxy)benzyl)-1H-indole-4-carboxylic acid], the figures for the inhibition at 10 µM in test [1] and in test [2] were over 75% and 45 to 75%, respectively.

As for `O=C(O)c1cccc2c1ccn2Cc1cc(Cl)ccc1OCc1cc(F)ccc1F` [Example 29, 1-(5-chloro-2-((2,5-difluorobenzyl)oxy)benzyl)-1H-indole-4-carboxylic acid], the inhibition at 10 µM in test [1] and in test [2] was over 75% in each case.

For `O=C(O)c1cccc2c1ccn2Cc1cc(F)ccc1OCc1c(F)cccc1F` [Example 33, 1-(2-((2,6-difluorobenzyl)oxy)-5-fluorobenzyl)-1H-indole-4-carboxylic acid], the inhibition at 10 µM in test [1] was over 75%; in test [2] it was 45 to 75%.

As to `O=C(O)c1cccc2c1ccn2Cc1cc(F)ccc1OCc1cc(F)c(F)c(F)c1` [Example 34, 1-(5-fluoro-2-((3,4,5-trifluorobenzyl)oxy)benzyl)-1H-indole-4-carboxylic acid], the inhibition at 10 µM in test [1] was over 75%; in test [2], 45 to 75%.

Turning to `O=C(O)c1cccc2c1ccn2Cc1cc(Cl)ccc1OCc1ccccc1F` [Example 45, 1-(5-chloro-2-((2-fluorobenzyl)oxy)benzyl)-1H-indole-4-carboxylic acid], the inhibition at 10 µM in test [1] and in test [2] was over 75% in each case.

With `O=C(O)/C=C/c1cccc2c1ccn2Cc1cc(Br)ccc1OCC1CC1` [Example 80, (E)-3-(1-(5-bromo-2-(cyclopropylmethoxy)benzyl)-1H-indol-4-yl)acrylic acid], in test [1], the inhibition at 10 µM is over 75%.

As for `O=C(O)/C=C/c1cccc2c1ccn2Cc1cc(Cl)ccc1OCC1CC1` [Example 81, (E)-3-(1-(5-chloro-2-(cyclopropylmethoxy)benzyl)-1H-indol-4-yl)acrylic acid], in test [1], the inhibition at 10 µM was over 75%.

In the case of `O=C(O)/C=C/c1cccc2c1ccn2Cc1cc(Cl)ccc1OCc1ccc(F)cc1F` [Example 82, (E)-3-(1-(5-chloro-2-((2,4-difluorobenzyl)oxy)benzyl)-1H-indol-4-yl)acrylic acid], the inhibition at 10 µM in test [1] was over 75%.

On to `O=C(O)/C=C/c1cccc2c1ccn2Cc1cc(Cl)ccc1OCc1ccc(Cl)cc1F` [Example 83, (E)-3-(1-(5-chloro-2-((4-chloro-2-fluorobenzyl)oxy)benzyl)-1H-indol-4-yl)acrylic acid], for which the inhibition at 10 µM in test [1] was over 75%.

With `O=C(O)COc1cccc2c1ccn2Cc1cc(C(F)(F)F)ccc1OCc1ccc(Cl)cc1F` [Example 84, 2-((1-(2-((4-chloro-2-fluorobenzyl)oxy)-5-(trifluoromethyl)benzyl)-1H-indol-4-yl)oxy)acetic acid], the inhibition at 10 µM in test [1] was over 75%.

On to `O=C(O)COc1cccc2c1ccn2Cc1cc(Cl)ccc1OCC1CC1` [Example 85, 2-((1-(5-chloro-2-(cyclopropylmethoxy)benzyl)-1H-indol-4-yl)oxy)acetic acid], for which the inhibition at 10 µM in test [1] was over 75%.

`O=C(O)c1ccc2ccn(Cc3cc(Br)ccc3OCc3ccccc3)c2c1` [Example 87, 1-(2-(benzyloxy)-5-bromobenzyl)-1H-indole-6-carboxylic acid]: in test [1], the inhibition at 10 µM was over 75%.

For the compound `O=C(O)CCc1cccc2c1ccn2Cc1cc(Cl)ccc1OCc1ccc(Cl)cc1F` [Example 89, 3-(1-(5-chloro-2-((4-chloro-2-fluorobenzyl)oxy)benzyl)-1H-indol-4-yl)propanoic acid], the “Results of Test 2 (Functional assay), % inh” value in test [1] (at 10 μM) is listed as “$$ (45 < % inh < 75)”.

For the compound `O=C(O)c1ccnc2c1ccn2Cc1cc(Cl)ccc1OCc1ccc(Cl)cc1F` [Example 90, 1-(5-chloro-2-((4-chloro-2-fluorobenzyl)oxy)benzyl) -1H-pyrrolo[2,3-b]pyridine-4-carboxylic acid], the inhibition at 10 µM in test [1] is over 75%.

Regarding `O=C(O)c1cccc2c1ncn2Cc1cc(Cl)ccc1OCc1ccc(Cl)cc1F` [Example 92, 1-(5-chloro-2-((4-chloro-2-fluorobenzyl)oxy)benzyl) -1H-benzo[d]imidazole-4-carboxylic acid], the inhibition at 10 µM in test [1] was 45 to 75%.

Consider `O=C(O)c1cccc2c1CCN2Cc1cc(Cl)ccc1OCc1ccc(Cl)cc1F` [Example 93, 1-(5-chloro-2-((4-chloro-2-fluorobenzyl)oxy)benzyl)indoline-4-carboxylic acid], for which the inhibition at 10 µM in test [1] is over 75%.

As to `O=C(O)c1cccc2c1CCCN2Cc1cc(Cl)ccc1OCc1ccc(Cl)cc1F` [Example 94, 1-(5-chloro-2-((4-chloro-2-fluorobenzyl)oxy)benzyl) -1,2,3,4-tetrahydroquinoline-5-carboxylic acid], the inhibition at 10 µM in test [1] was over 75%.

As to `O=C(O)c1cccc2c1CCCN2Cc1cc(Cl)ccc1OCc1ccc(F)cc1F` [Example 95], in test [1], the inhibition at 10 µM was over 75%.

With `O=C(O)c1ccc(F)c2c1ccn2Cc1cc(Cl)ccc1OCc1ccc(F)cc1F` [Example 100, sodium 1-(5-chloro-2-((2,4-difluorobenzyl)oxy)benzyl)-7-fluoro-1H-indole-4-carboxylate], the inhibition at 10 µM in test [1] is over 75%.
